Among the test systems are A549 NSCLC; ACHN renal; HOP-92 NSCLC; MDA-MB-435; NCI-H23 lung; OVCAR-5 ovarian; SK-MEL-5 melanoma; U251 CNS; UACC-257 melanoma; T-47D breast.
Common to all, as to assay: growth of human tumour cells (NCI), 48 h

Each structure is given as a SMILES string.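 Cultured in 96-well plates, cells were exposed to test compound for 48 hours across five concentrations. TGI is the concentration that stops growth completely.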

In the case of `COc1ccccc1CN=C1Nc2ccncc2S(=O)(=O)N1c1ccccc1`, the TGI in the assay on A549 NSCLC, in the assay with ACHN renal, in the assay with HOP-92 NSCLC, in the assay on MDA-MB-435, with NCI-H23 lung and with OVCAR-5 ovarian was above 100 µM each time. Also, the TGI in the assay on SK-MEL-5 melanoma, in the assay with U251 CNS and in the assay on UACC-257 melanoma was above 100 µM in each case.

As for `COC(=O)[C@@H]1CCCCC[C@H]2C(CO)=C(C)C(=O)C12` (some centres not stated), the TGI with A549 NSCLC, with ACHN renal, in the assay with HOP-92 NSCLC, in the assay with NCI-H23 lung, in the assay with OVCAR-5 ovarian and with SK-MEL-5 melanoma was above 100 µM each time. Further, the TGI in the assay with U251 CNS and with UACC-257 melanoma was above 100 µM throughout.

Regarding `CCOC(=O)C1(C#N)C(c2ccccc2)CC(O)(c2ccc(Cl)cc2)C(C(=O)c2ccc(Cl)cc2)C1c1ccccc1` (configuration not stated), the TGI in the assay on A549 NSCLC, in the assay on ACHN renal, in the assay on NCI-H23 lung, with OVCAR-5 ovarian, in the assay with SK-MEL-5 melanoma and in the assay on UACC-257 melanoma was above 100 µM each time.

For the molecule `COC(=O)C(=O)C(C(=O)C(=O)Nc1cccc(C(C)=O)c1)c1nc2ccccc2[nH]c1=O` (configuration not stated), the TGI with A549 NSCLC, with ACHN renal, in the assay with HOP-92 NSCLC, with NCI-H23 lung, in the assay with OVCAR-5 ovarian and in the assay with SK-MEL-5 melanoma was above 100 µM each time. The molecule also gave a TGI with UACC-257 melanoma above 100 µM.

As to `CN(C)/N=C(/c1nc2ccc(Cl)cc2[nH]c1=O)C(O)c1ccc(C(O)/C(=N\N(C)C)c2nc3ccc(Cl)cc3[nH]c2=O)cc1` (configuration not stated), the TGI in the assay on A549 NSCLC, in the assay with ACHN renal, with HOP-92 NSCLC, in the assay on NCI-H23 lung, with OVCAR-5 ovarian and in the assay on SK-MEL-5 melanoma was above 100 µM throughout. Besides, the TGI with UACC-257 melanoma was above 100 µM.

With `O=C1N=C2SC(=S)NC(=S)N2NC12c1ccccc1-c1ccccc12`, the TGI in the assay on A549 NSCLC, in the assay with HOP-92 NSCLC, in the assay on NCI-H23 lung, with SK-MEL-5 melanoma, with T-47D breast and in the assay with U251 CNS was above 10 µM in each case. Also, the TGI in the assay on UACC-257 melanoma is above 10 µM.

On to `NCCCCNCCCNC(=O)c1nc(-c2nc(CCN)sc2Cl)sc1Cl`, for which the TGI in the assay with A549 NSCLC, with ACHN renal, in the assay with HOP-92 NSCLC, in the assay with NCI-H23 lung, in the assay on OVCAR-5 ovarian and with SK-MEL-5 melanoma was above 100 µM each time. The TGI in the assay with U251 CNS and with UACC-257 melanoma was above 100 µM each time.

With `CCOC(=O)c1s/c(=N\Nc2nc3ccccc3cc2C2OCCO2)n(Cc2ccccc2)c1C`, the TGI with A549 NSCLC, in the assay with ACHN renal, in the assay with HOP-92 NSCLC, in the assay with NCI-H23 lung, with OVCAR-5 ovarian and in the assay on SK-MEL-5 melanoma was above 100 µM in each case. The TGI in the assay with U251 CNS and in the assay with UACC-257 melanoma was above 100 µM throughout.

In the case of `O=C1C=CC=C/C1=C1\N=C(c2ccccc2OCC(=O)c2ccccc2)SS1`, the TGI in the assay with A549 NSCLC, in the assay on ACHN renal, in the assay with HOP-92 NSCLC, with MDA-MB-435, with NCI-H23 lung and with OVCAR-5 ovarian was above 100 µM each time. Also, the TGI with U251 CNS and in the assay on UACC-257 melanoma was above 100 µM in each case.

For the molecule `C/C(Cl)=N\OC(=O)Nc1ccc(C)cc1`, the TGI is 35.6 µM in the assay with A549 NSCLC; 29.1 µM with ACHN renal; 37.1 µM in the assay with HOP-92 NSCLC; 39 µM in the assay on NCI-H23 lung; 32.6 µM in the assay on OVCAR-5 ovarian; 31.5 µM with SK-MEL-5 melanoma. In addition, the results for the TGI with T-47D breast, in the assay on U251 CNS and in the assay with UACC-257 melanoma were 48.2 µM, 29.9 µM and 32.9 µM, respectively.

With `CC(C)N1CC2CC(CN(C(=O)c3ccccc3)C2)C1`, the TGI in the assay on A549 NSCLC, with ACHN renal, in the assay with HOP-92 NSCLC, in the assay on NCI-H23 lung, in the assay with OVCAR-5 ovarian and with SK-MEL-5 melanoma was above 100 µM each time. Besides, the TGI with U251 CNS and with UACC-257 melanoma was above 100 µM each time.

`CSc1nc(NC(C)C)c2c(n1)Sc1nc3ccccc3n1N=C2`: the TGI in the assay on A549 NSCLC was 38.6 µM; in the assay with ACHN renal, 20.9 µM; with HOP-92 NSCLC, 31.2 µM; in the assay on MDA-MB-435, 70.3 µM; in the assay on NCI-H23 lung, 38.7 µM; in the assay with OVCAR-5 ovarian, above 100 µM. The TGI was 23.9 µM in the assay on SK-MEL-5 melanoma, 29.9 µM in the assay with U251 CNS and above 100 µM with UACC-257 melanoma.

In the case of `CN1C(=O)N(C)C(O)C(Cl)(Br)C1=O` (configuration not stated), the TGI in the assay on A549 NSCLC, in the assay with ACHN renal, with MDA-MB-435, with NCI-H23 lung, with OVCAR-5 ovarian and with SK-MEL-5 melanoma was above 100 µM in each case. The TGI in the assay with U251 CNS and in the assay with UACC-257 melanoma was above 100 µM in each case.

Regarding `CN(C)CCNC(=O)c1cc(Cl)cc2ccc(-c3ccccc3)nc12`, the TGI with A549 NSCLC came to 12.4 µM; in the assay on HOP-92 NSCLC, 9.35 µM; in the assay with NCI-H23 lung, 14.4 µM; in the assay with OVCAR-5 ovarian, 13.7 µM; in the assay on SK-MEL-5 melanoma, 3.82 µM; in the assay with U251 CNS it was 15.3 µM. Moreover, the TGI in the assay with UACC-257 melanoma came to 10.8 µM.

Regarding `CC1=NN(c2nc(N)nc(-c3sccc3N)n2)C(C)(C)C1`, the TGI in the assay with A549 NSCLC, with ACHN renal, in the assay on HOP-92 NSCLC, with MDA-MB-435, with NCI-H23 lung and with OVCAR-5 ovarian was above 100 µM in each case. Also, the TGI in the assay with SK-MEL-5 melanoma, in the assay on U251 CNS and in the assay with UACC-257 melanoma was above 100 µM throughout.

On to `O=C(OCCN=c1c2ccccc2ccc2ccccc12)c1ccccc1`, for which the TGI in the assay on A549 NSCLC, in the assay on ACHN renal, in the assay with HOP-92 NSCLC, in the assay with MDA-MB-435, with NCI-H23 lung and in the assay on OVCAR-5 ovarian was above 100 µM in each case. Also, the TGI with SK-MEL-5 melanoma, in the assay on U251 CNS and in the assay on UACC-257 melanoma was above 100 µM throughout.

For the origin of these results see PubChem BioAssay (NCI).
